The values below are quoted from earlier work in patent US20190298660A1, “PHOSPHATE-CROSSLINKED STARCH NANOPARTICLES AND USE FOR DRUG DELIVERY” (GreenMark Biomedical Inc., priority 2018, published 2019).

Molecules are shown by their SMILES.

For `COc1cccc2c1C(=O)c1c(O)c3c(c(O)c1C2=O)C[C@@](O)(C(=O)CO)C[C@@H]3O[C@H]1C[C@H](N)[C@H](O)[C@H](C)O1` [doxorubicin], the pKa was 9.53.
